Measurements: PubChem BioAssay (NCI)
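At the GI50, growth is halved. The concentration for full growth arrest is given as TGI.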

Legend:
Test in all cases: growth of human tumour cells (NCI), 384-well format
786-0 renal = tested on: 786-0 renal
A498 renal = tested on: A498 renal
A549 NSCLC = tested on: A549 NSCLC
ACHN renal = tested on: ACHN renal
BT-549 breast = tested on: BT-549 breast
CAKI-1 renal = tested on: CAKI-1 renal
CCRF-CEM leukemia = tested on: CCRF-CEM leukemia
COLO 205 colon = tested on: COLO 205 colon
DU-145 prostate = tested on: DU-145 prostate
EKVX NSCLC = tested on: EKVX NSCLC
HCC-2998 colon = tested on: HCC-2998 colon
HCT-15 colon = tested on: HCT-15 colon
HL-60(TB) leukemia = tested on: HL-60(TB) leukemia
HOP-62 NSCLC = tested on: HOP-62 NSCLC
HOP-92 NSCLC = tested on: HOP-92 NSCLC
HS 578T breast = tested on: HS 578T breast
HT29 colon = tested on: HT29 colon
IGROV1 ovarian = tested on: IGROV1 ovarian
K-562 leukemia = tested on: K-562 leukemia
KM12 colon = tested on: KM12 colon
LOX IMVI melanoma = tested on: LOX IMVI melanoma
M14 melanoma = tested on: M14 melanoma
MALME-3M melanoma = tested on: MALME-3M melanoma
MCF7 breast = tested on: MCF7 breast
MDA-MB-231 breast = tested on: MDA-MB-231 breast
MDA-MB-435 melanoma = tested on: MDA-MB-435 melanoma
MDA-MB-468 breast = tested on: MDA-MB-468 breast
MOLT-4 leukemia = tested on: MOLT-4 leukemia
NCI-H226 lung = tested on: NCI-H226 lung
NCI-H23 lung = tested on: NCI-H23 lung
NCI-H322M lung = tested on: NCI-H322M lung
NCI-H460 NSCLC = tested on: NCI-H460 NSCLC
NCI-H522 lung = tested on: NCI-H522 lung
NCI/ADR-RES ovarian = tested on: NCI/ADR-RES ovarian
OVCAR-3 ovarian = tested on: OVCAR-3 ovarian
OVCAR-4 ovarian = tested on: OVCAR-4 ovarian
OVCAR-5 ovarian = tested on: OVCAR-5 ovarian
OVCAR-8 ovarian = tested on: OVCAR-8 ovarian
PC-3 prostate = tested on: PC-3 prostate
RPMI-8226 leukemia = tested on: RPMI-8226 leukemia
RXF 393 renal = tested on: RXF 393 renal
SF-268 CNS = tested on: SF-268 CNS
SF-295 CNS = tested on: SF-295 CNS
SF-539 CNS = tested on: SF-539 CNS
SK-MEL-28 melanoma = tested on: SK-MEL-28 melanoma
SK-MEL-5 melanoma = tested on: SK-MEL-5 melanoma
SK-OV-3 ovarian = tested on: SK-OV-3 ovarian
SN12C renal = tested on: SN12C renal
SNB-19 CNS = tested on: SNB-19 CNS
SNB-75 CNS = tested on: SNB-75 CNS
SR leukemia = tested on: SR leukemia
SW-620 colon = tested on: SW-620 colon
T-47D breast = tested on: T-47D breast
TK-10 renal = tested on: TK-10 renal
UACC-257 melanoma = tested on: UACC-257 melanoma
UACC-62 melanoma = tested on: UACC-62 melanoma
UO-31 renal = tested on: UO-31 renal

With `Cc1cc(-c2ccc(C3C(C#N)=C(N)Oc4c3c(=O)oc3ccccc43)cc2)cnc1F` (centres undefined) the GI50 ([…]-0 renal) was 43.2 µM, the TGI (786-0 renal) was greater than 100 µM and the GI50 (A498 renal) was 31.3 µM. It also gave a TGI (A498 renal) greater than 100 µM, a GI50 (A549 NSCLC) of 54.5 µM and a TGI (A549 NSCLC) greater than 100 µM. For the same compound, the GI50 (ACHN renal) was 42.6 µM, the TGI (ACHN renal) was greater than 100 µM and the GI50 (BT-549 breast) was 27.9 µM. The TGI (BT-549 breast) was greater than 100 µM, the GI50 (CAKI-1 renal) was 43.6 µM and the TGI (CAKI-1 renal) was greater than 100 µM. For the same compound, the GI50 (CCRF-CEM leukemia) was 17.5 µM, the TGI (CCRF-CEM leukemia) was 33.7 µM and the GI50 (COLO 205 colon) was 64.6 µM. The TGI (COLO 205 colon) was greater than 100 µM, the GI50 (DU-145 prostate) was 39.3 µM and the TGI (DU-145 prostate) was greater than 100 µM. The GI50 (EKVX NSCLC) was 43.7 µM, the TGI (EKVX NSCLC) was greater than 100 µM and the GI50 (HCC-2998 colon) was 29.7 µM. It also gave a TGI (HCC-2998 colon) of 80.3 µM, a GI50 (HCT-15 colon) of 18.9 µM and a TGI (HCT-15 colon) of 39.3 µM. It also gave a GI50 (HL-60(TB) leukemia) of 24.7 µM, a TGI (HL-60(TB) leukemia) of 44.9 µM and a GI50 (HOP-62 NSCLC) of 34.7 µM. The TGI (HOP-62 NSCLC) was greater than 100 µM, the GI50 (HOP-92 NSCLC) was 13.9 µM and the TGI (HOP-92 NSCLC) was 39.7 µM. For the same compound, the GI50 (HS 578T breast) was 29.1 µM, the TGI (HS 578T breast) was 79.9 µM and the GI50 (HT29 colon) was 25.1 µM. It also gave a TGI (HT29 colon) of 65 µM, a GI50 (IGROV1 ovarian) of 42.5 µM and a TGI (IGROV1 ovarian) greater than 100 µM. It also gave a GI50 (K-562 leukemia) of 33.9 µM, a TGI (K-562 leukemia) greater than 100 µM and a GI50 (KM12 colon) greater than 100 µM. The TGI (KM12 colon) was greater than 100 µM, the GI50 (LOX IMVI melanoma) was 21.9 µM and the TGI (LOX IMVI melanoma) was 45.4 µM. For the same compound, the GI50 (M14 melanoma) was 90.2 µM, the TGI (M14 melanoma) was greater than 100 µM and the GI50 (MALME-3M melanoma) was 47.7 µM. It also gave a TGI (MALME-3M melanoma) greater than 100 µM, a GI50 (MCF7 breast) of 38 µM and a TGI (MCF7 breast) greater than 100 µM. It also gave a GI50 (MDA-MB-231 breast) of 39.7 µM, a TGI (MDA-MB-231 breast) greater than 100 µM and a GI50 (MDA-MB-435 melanoma) of 89 µM. The TGI (MDA-MB-435 melanoma) was greater than 100 µM, the GI50 (MDA-MB-468 breast) was 24 µM and the TGI (MDA-MB-468 breast) was 49.2 µM. For the same compound, the GI50 (MOLT-4 leukemia) was 15 µM, the TGI (MOLT-4 leukemia) was 28.4 µM and the GI50 (NCI-H226 lung) was 18.4 µM. The TGI (NCI-H226 lung) was 59.3 µM, the GI50 (NCI-H23 lung) was 29.6 µM and the TGI (NCI-H23 lung) was greater than 100 µM. For the same compound, the GI50 (NCI-H322M lung) was 25.4 µM, the TGI (NCI-H322M lung) was 67 µM and the GI50 (NCI-H460 NSCLC) was 37.1 µM. For the same compound, the TGI (NCI-H460 NSCLC) was greater than 100 µM, the GI50 (NCI-H522 lung) was 17.5 µM and the TGI (NCI-H522 lung) was 35.4 µM. For the same compound, the GI50 (NCI/ADR-RES ovarian) was 40 µM, the TGI (NCI/ADR-RES ovarian) was greater than 100 µM and the GI50 (OVCAR-3 ovarian) was 26.7 µM. For the same compound, the TGI (OVCAR-3 ovarian) was 57.1 µM, the GI50 (OVCAR-4 ovarian) was 33.9 µM and the TGI (OVCAR-4 ovarian) was greater than 100 µM. It also gave a GI50 (OVCAR-5 ovarian) of 37.4 µM, a TGI (OVCAR-5 ovarian) greater than 100 µM and a GI50 (OVCAR-8 ovarian) of 38.5 µM. The TGI (OVCAR-8 ovarian) was greater than 100 µM, the GI50 (PC-3 prostate) was 53.1 µM and the TGI (PC-3 prostate) was greater than 100 µM. It also gave a GI50 (RPMI-8226 leukemia) of 14 µM, a TGI (RPMI-8226 leukemia) of 33.5 µM and a GI50 (RXF 393 renal) of 17.4 µM. It also gave a TGI (RXF 393 renal) of 32.2 µM, a GI50 (SF-268 CNS) of 50.1 µM and a TGI (SF-268 CNS) greater than 100 µM. The GI50 (SF-295 CNS) was 46.9 µM, the TGI (SF-295 CNS) was greater than 100 µM and the GI50 (SF-539 CNS) was 24.8 µM. The TGI (SF-539 CNS) was 55.6 µM, the GI50 (SK-MEL-28 melanoma) was greater than 100 µM and the TGI (SK-MEL-28 melanoma) was greater than 100 µM. It also gave a GI50 (SK-MEL-5 melanoma) of 29.8 µM, a TGI (SK-MEL-5 melanoma) of 78.1 µM and a GI50 (SK-OV-3 ovarian) of 45.9 µM. For the same compound, the TGI (SK-OV-3 ovarian) was greater than 100 µM, the GI50 (SN12C renal) was 47.7 µM and the TGI (SN12C renal) was greater than 100 µM. For the same compound, the GI50 (SNB-19 CNS) was 62.9 µM, the TGI (SNB-19 CNS) was greater than 100 µM and the GI50 (SNB-75 CNS) was 40.9 µM. The TGI (SNB-75 CNS) was greater than 100 µM, the GI50 (SR leukemia) was 17.1 µM and the TGI (SR leukemia) was 32.2 µM. The GI50 (SW-620 colon) was 58.3 µM, the TGI (SW-620 colon) was greater than 100 µM and the GI50 (T-47D breast) was 46.4 µM. It also gave a TGI (T-47D breast) greater than 100 µM, a GI50 (TK-10 renal) of 30.3 µM and a TGI (TK-10 renal) of 82.1 µM. For the same compound, the GI50 (UACC-257 melanoma) was 58.1 µM, the TGI (UACC-257 melanoma) was greater than 100 µM and the GI50 (UACC-62 melanoma) was 40.1 µM. The TGI (UACC-62 melanoma) was greater than 100 µM, the GI50 (UO-31 renal) was 30.1 µM and the TGI (UO-31 renal) was greater than 100 µM.
